Data from ChEMBL document CHEMBL6127119 (J Med Chem, 2024).
≈ marks a conversion by molar mass, not a printed value.

Columns and labels:
Type in all cases: functional
Details in all cases: time 16-24 hrs
Staphylococcus aureus [1] = assay: Antibacterial activity against vancomycin-intermediate Staphylococcus aureus incubated for 16 to 24 hrs by CLSI based broth microdilution method
Klebsiella pneumoniae = assay: Antibacterial activity against Klebsiella pneumoniae clinical isolate incubated for 16 to 24 hrs by CLSI based broth microdilution method
Enterococcus faecium [2] = assay: Antibacterial activity against vancomycin-resistant Enterococcus faecium harboring VanA phenotype incubated for 16 to 24 hrs by CLSI based broth microdilution method
Escherichia coli = assay: Antibacterial activity against Escherichia coli AB1157 incubated for 16 to 24 hrs by CLSI based broth microdilution method
Staphylococcus aureus [3] = assay: Antibacterial activity against methicillin-susceptible Staphylococcus aureus incubated for 16 to 24 hrs by CLSI based broth microdilution method
Acinetobacter baumannii = assay: Antibacterial activity against Carbapenem-resistant Acinetobacter baumannii clinical isolate incubated for 16 to 24 hrs by CLSI based broth microdilution method
Enterococcus faecium [4] = assay: Antibacterial activity against vancomycin-resistant Enterococcus faecium harboring VanM phenotype incubated for 16 to 24 hrs by CLSI based broth microdilution method
Enterococcus faecium [5] = assay: Antibacterial activity against vancomycin-resistant Enterococcus faecium harboring VanB phenotype incubated for 16 to 24 hrs by CLSI based broth microdilution method

| Structure (SMILES) | MIC (Staphylococcus aureus [1]) [µg/mL] | MIC (Klebsiella pneumoniae) [µg/mL] | MIC (Enterococcus faecium [2]) [µg/mL] | MIC (Escherichia coli) [µg/mL] | MIC (Staphylococcus aureus [3]) [µg/mL] | MIC (Acinetobacter baumannii) [µg/mL] | MIC (Enterococcus faecium [4]) [µg/mL] | MIC (Enterococcus faecium [5]) [µg/mL] |
| --- | --- | --- | --- | --- | --- | --- | --- | --- |
| CN[C@H](CC(C)C)C(=O)N[C@H]1C(=O)N[C@@H](CC(N)=O)C(=O)N[C@H]2C(=O)N[C@H]3C(=O)N[C@H](C(=O)N[C@H](C(=O)NCc4ccc(-c5ccc(CCN)cc5)cc4)c4cc(O)cc(O)c4-c4cc3ccc4O)[C@H](O)c3ccc(c(Cl)c3)Oc3cc2cc(c3O[C@@H]2O[C@H](CO)[C@@H](O)[C@H](O)[C@H]2O[C@H]2C[C@](C)(N)[C@H](O)[C@H](C)O2)Oc2ccc(cc2Cl)[C@H]1O | 1 (≈ 0.603 µM) | > 128 | 8 (≈ 4.83 µM) | 16 (≈ 9.65 µM) | 1 (≈ 0.603 µM) | 32 (≈ 19.3 µM) | 8 (≈ 4.83 µM) | 4 (≈ 2.41 µM) |
| CC(C)C[C@H](C(=O)N[C@H]1C(=O)N[C@@H](CC(N)=O)C(=O)N[C@H]2C(=O)N[C@H]3C(=O)N[C@H](C(=O)N[C@H](C(=O)O)c4cc(O)cc(O)c4-c4cc3ccc4O)[C@H](O)c3ccc(c(Cl)c3)Oc3cc2cc(c3O[C@@H]2O[C@H](CO)[C@@H](O)[C@H](O)[C@H]2O[C@H]2C[C@](C)(N)[C@H](O)[C@H](C)O2)Oc2ccc(cc2Cl)[C@H]1O)N(C)Cc1ccc(-c2ccc(CCNC(=N)N)cc2)cc1 | 4 (≈ 2.35 µM) | > 128 | 32 (≈ 18.8 µM) | > 128 | 2 (≈ 1.18 µM) | > 128 | 32 (≈ 18.8 µM) | 32 (≈ 18.8 µM) |
| CN[C@H](CC(C)C)C(=O)N[C@H]1C(=O)N[C@@H](CC(N)=O)C(=O)N[C@H]2C(=O)N[C@H]3C(=O)N[C@H](C(=O)N[C@H](C(=O)NCCc4ccc(-c5ccc(CN)cc5)cc4)c4cc(O)cc(O)c4-c4cc3ccc4O)[C@H](O)c3ccc(c(Cl)c3)Oc3cc2cc(c3O[C@@H]2O[C@H](CO)[C@@H](O)[C@H](O)[C@H]2O[C@H]2C[C@](C)(N)[C@H](O)[C@H](C)O2)Oc2ccc(cc2Cl)[C@H]1O | 1 (≈ 0.603 µM) | > 128 | 8 (≈ 4.83 µM) | 16 (≈ 9.65 µM) | 0.25 (≈ 0.151 µM) | 32 (≈ 19.3 µM) |  | 8 (≈ 4.83 µM) |
| CC(C)C[C@H](C(=O)N[C@H]1C(=O)N[C@@H](CC(N)=O)C(=O)N[C@H]2C(=O)N[C@H]3C(=O)N[C@H](C(=O)N[C@H](C(=O)O)c4cc(O)cc(O)c4-c4cc3ccc4O)[C@H](O)c3ccc(c(Cl)c3)Oc3cc2cc(c3O[C@@H]2O[C@H](CO)[C@@H](O)[C@H](O)[C@H]2O[C@H]2C[C@](C)(N)[C@H](O)[C@H](C)O2)Oc2ccc(cc2Cl)[C@H]1O)N(C)Cc1ccc(-c2ccc(CCN)cc2)cc1 | 8 (≈ 4.82 µM) | > 128 | 64 (≈ 38.6 µM) | > 128 | 1 (≈ 0.603 µM) | > 128 | 64 (≈ 38.6 µM) | 64 (≈ 38.6 µM) |
| CC(C)C[C@H](C(=O)N[C@H]1C(=O)N[C@@H](CC(N)=O)C(=O)N[C@H]2C(=O)N[C@H]3C(=O)N[C@H](C(=O)N[C@H](C(=O)O)c4cc(O)cc(O)c4-c4cc3ccc4O)[C@H](O)c3ccc(c(Cl)c3)Oc3cc2cc(c3O[C@@H]2O[C@H](CO)[C@@H](O)[C@H](O)[C@H]2O[C@H]2C[C@](C)(N)[C@H](O)[C@H](C)O2)Oc2ccc(cc2Cl)[C@H]1O)N(C)Cc1ccc(-c2ccc(CN)cc2)cc1 | 8 (≈ 4.86 µM) | > 128 | 64 (≈ 38.9 µM) | > 128 | 1 (≈ 0.608 µM) | > 128 | 64 (≈ 38.9 µM) | 64 (≈ 38.9 µM) |
| CC(C)C[C@@H](N)C(=O)N[C@H]1C(=O)N[C@@H](CC(N)=O)C(=O)N[C@H]2C(=O)N[C@H]3C(=O)N[C@H](C(=O)N[C@H](C(=O)NCc4ccc(CN)cc4)c4cc(O)cc(O)c4-c4cc3ccc4O)[C@H](O)c3ccc(c(Cl)c3)Oc3cc2cc(c3O[C@@H]2O[C@H](CO)[C@@H](O)[C@H](O)[C@H]2O[C@H]2C[C@](C)(N)[C@H](O)[C@H](C)O2)Oc2ccc(cc2Cl)[C@H]1O | 1 (≈ 0.644 µM) |  | 128 (≈ 82.4 µM) | 16 (≈ 10.3 µM) | 1 (≈ 0.644 µM) | 64 (≈ 41.2 µM) | 64 (≈ 41.2 µM) | 64 (≈ 41.2 µM) |
| CN[C@H](CC(C)C)C(=O)N[C@H]1C(=O)N[C@@H](CC(N)=O)C(=O)N[C@H]2C(=O)N[C@H]3C(=O)N[C@H](C(=O)N[C@H](C(=O)O)c4cc(O)cc(O)c4-c4cc3ccc4O)[C@H](O)c3ccc(c(Cl)c3)Oc3cc2cc(c3O[C@@H]2O[C@H](CO)[C@@H](O)[C@H](O)[C@H]2O[C@H]2C[C@](C)(NCc3ccc(-c4ccc(CN)cc4)cc3)[C@H](O)[C@H](C)O2)Oc2ccc(cc2Cl)[C@H]1O | 2 (≈ 1.22 µM) | > 128 | 16 (≈ 9.73 µM) | 64 (≈ 38.9 µM) | 0.25 (≈ 0.152 µM) | 128 (≈ 77.8 µM) |  | 16 (≈ 9.73 µM) |
| CN[C@H](CC(C)C)C(=O)N[C@H]1C(=O)N[C@@H](CC(N)=O)C(=O)N[C@H]2C(=O)N[C@H]3C(=O)N[C@H](C(=O)N[C@H](C(=O)O)c4cc(O)cc(O)c4-c4cc3ccc4O)[C@H](O)c3ccc(c(Cl)c3)Oc3cc2cc(c3O[C@@H]2O[C@H](CO)[C@@H](O)[C@H](O)[C@H]2O[C@H]2C[C@](C)(NCc3ccc(-c4ccc(CNC(=N)N)cc4)cc3)[C@H](O)[C@H](C)O2)Oc2ccc(cc2Cl)[C@H]1O | 2 (≈ 1.19 µM) | > 128 | 4 (≈ 2.37 µM) | 64 (≈ 37.9 µM) | 0.125 (≈ 0.0741 µM) | 64 (≈ 37.9 µM) |  | 4 (≈ 2.37 µM) |
| CN[C@H](CC(C)C)C(=O)N[C@H]1C(=O)N[C@@H](CC(N)=O)C(=O)N[C@H]2C(=O)N[C@H]3C(=O)N[C@H](C(=O)N[C@H](C(=O)O)c4cc(O)cc(O)c4-c4cc3ccc4O)[C@H](O)c3ccc(c(Cl)c3)Oc3cc2cc(c3O[C@@H]2O[C@H](CO)[C@@H](O)[C@H](O)[C@H]2O[C@H]2C[C@](C)(NCc3ccc(-c4ccc(CCN)cc4)cc3)[C@H](O)[C@H](C)O2)Oc2ccc(cc2Cl)[C@H]1O | 2 (≈ 1.21 µM) | > 128 | 16 (≈ 9.65 µM) | 64 (≈ 38.6 µM) | 0.25 (≈ 0.151 µM) | 64 (≈ 38.6 µM) |  | 8 (≈ 4.82 µM) |
| CN[C@H](CC(C)C)C(=O)N[C@H]1C(=O)N[C@@H](CC(N)=O)C(=O)N[C@H]2C(=O)N[C@H]3C(=O)N[C@H](C(=O)N[C@H](C(=O)O)c4cc(O)cc(O)c4-c4cc3ccc4O)[C@H](O)c3ccc(c(Cl)c3)Oc3cc2cc(c3O[C@@H]2O[C@H](CO)[C@@H](O)[C@H](O)[C@H]2O[C@H]2C[C@](C)(NCc3ccc(-c4ccc(CCNC(=N)N)cc4)cc3)[C@H](O)[C@H](C)O2)Oc2ccc(cc2Cl)[C@H]1O | 2 (≈ 1.18 µM) | > 128 | 8 (≈ 4.7 µM) | 64 (≈ 37.6 µM) | 0.125 (≈ 0.0735 µM) | 64 (≈ 37.6 µM) |  | 4 (≈ 2.35 µM) |
| CN[C@H](CC(C)C)C(=O)N[C@H]1C(=O)N[C@@H](CC(N)=O)C(=O)N[C@H]2C(=O)N[C@H]3C(=O)N[C@H](C(=O)N[C@H](C(=O)NCc4ccc(-c5ccc(CN)cc5)cc4)c4cc(O)cc(O)c4-c4cc3ccc4O)[C@H](O)c3ccc(c(Cl)c3)Oc3cc2cc(c3O[C@@H]2O[C@H](CO)[C@@H](O)[C@H](O)[C@H]2O[C@H]2C[C@](C)(N)[C@H](O)[C@H](C)O2)Oc2ccc(cc2Cl)[C@H]1O | 1 (≈ 0.608 µM) | > 128 | 8 (≈ 4.87 µM) | 16 (≈ 9.74 µM) | ≤ 0.063 | 32 (≈ 19.5 µM) |  | 8 (≈ 4.87 µM) |
| CC(C)C[C@H](C(=O)N[C@H]1C(=O)N[C@@H](CC(N)=O)C(=O)N[C@H]2C(=O)N[C@H]3C(=O)N[C@H](C(=O)N[C@H](C(=O)O)c4cc(O)cc(O)c4-c4cc3ccc4O)[C@H](O)c3ccc(c(Cl)c3)Oc3cc2cc(c3O[C@@H]2O[C@H](CO)[C@@H](O)[C@H](O)[C@H]2O[C@H]2C[C@](C)(N)[C@H](O)[C@H](C)O2)Oc2ccc(cc2Cl)[C@H]1O)N(C)Cc1ccc(-c2ccc(CNC(=N)N)cc2)cc1 | 4 (≈ 2.37 µM) | > 128 | 32 (≈ 19 µM) | > 128 | 1 (≈ 0.593 µM) | > 128 | 32 (≈ 19 µM) | 32 (≈ 19 µM) |
| CC(C)C[C@@H](N)C(=O)N[C@H]1C(=O)N[C@@H](CC(N)=O)C(=O)N[C@H]2C(=O)N[C@H]3C(=O)N[C@H](C(=O)N[C@H](C(=O)NCc4ccc(CNC(=N)N)cc4)c4cc(O)cc(O)c4-c4cc3ccc4O)[C@H](O)c3ccc(c(Cl)c3)Oc3cc2cc(c3O[C@@H]2O[C@H](CO)[C@@H](O)[C@H](O)[C@H]2O[C@H]2C[C@](C)(N)[C@H](O)[C@H](C)O2)Oc2ccc(cc2Cl)[C@H]1O | 1 (≈ 0.627 µM) |  | 16 (≈ 10 µM) | 8 (≈ 5.01 µM) | 0.25 (≈ 0.157 µM) | 32 (≈ 20.1 µM) | 16 (≈ 10 µM) | 8 (≈ 5.01 µM) |
